# Measured values published in ChEMBL document CHEMBL4138191, “Organic arsenicals target thioredoxin reductase followed by oxidative stress and mitochondrial dysfunction resulting in apoptosis” (Eur J Med Chem, 2018).
# The source made the active and inactive calls. The rule behind the calls is not given here.
# How the values were obtained:
# HL-60 [1] = assay: Cytotoxicity against human HL60 cells after 24 hrs by MTT assay; assay type: functional, cell-based; conditions: for IC50: HL-60, 24 h
# HL-60 [2] = assay: Cytotoxicity against human HL60 cells after 48 hrs by MTT assay; assay type: functional, cell-based; conditions: for IC50: HL-60, 48 h
# SGC-7901 [3] = assay: Cytotoxicity against human SGC7901 cells after 24 hrs by MTT assay; assay type: functional, cell-based; conditions: for IC50: SGC-7901, 24 h
# SGC-7901 [4] = assay: Cytotoxicity against human SGC7901 cells after 48 hrs by MTT assay; assay type: functional, cell-based; conditions: for IC50: SGC-7901, 48 h
# MCF7 = assay: Cytotoxicity against human MCF7 cells by MTT assay; assay type: functional, cell-based; conditions: TDE = time-dependent effect
# [5] = target: T1, Thioredoxin reductase 1, cytoplasmic (Homo sapiens) (UniProt Q16881); assay: Inhibition of TrxR in human HL60 cells assessed as residual activity at 2 times IC50 using thioredoxin as substrate up to 24 hrs measured for 5 mins by UV-Vis spectrophotometric analysis relative to control; assay type: cell-based
# T1 sequence (whole entry): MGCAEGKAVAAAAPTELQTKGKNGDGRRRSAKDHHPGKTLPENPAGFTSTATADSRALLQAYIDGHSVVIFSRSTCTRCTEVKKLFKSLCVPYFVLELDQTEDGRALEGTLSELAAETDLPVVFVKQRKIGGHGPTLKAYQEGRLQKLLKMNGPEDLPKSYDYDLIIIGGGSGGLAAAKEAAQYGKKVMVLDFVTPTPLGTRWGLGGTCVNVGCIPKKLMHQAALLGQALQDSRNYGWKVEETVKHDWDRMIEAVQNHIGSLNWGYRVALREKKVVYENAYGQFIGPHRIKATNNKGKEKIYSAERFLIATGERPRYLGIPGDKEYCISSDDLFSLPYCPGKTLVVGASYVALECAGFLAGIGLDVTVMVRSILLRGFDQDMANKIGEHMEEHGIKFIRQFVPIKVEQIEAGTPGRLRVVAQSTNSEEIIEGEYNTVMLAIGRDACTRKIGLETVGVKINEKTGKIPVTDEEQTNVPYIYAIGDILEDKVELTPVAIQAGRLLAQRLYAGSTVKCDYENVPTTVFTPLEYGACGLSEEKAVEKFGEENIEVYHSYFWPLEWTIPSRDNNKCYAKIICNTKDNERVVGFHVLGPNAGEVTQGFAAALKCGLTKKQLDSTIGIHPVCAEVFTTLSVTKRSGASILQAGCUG
# HL-60 [6] = assay: Induction of ROS generation in human HL60 cells at 1.5 uM after 24 hrs in presence of ROS inhibitor NAC by DCFH-DA staining-based flow cytometry; assay type: functional, cell-based
# HL-60 [7] = assay: Induction of ROS generation in human HL60 cells at 1.5 uM after 24 hrs in presence of antioxidant DTT by DCFH-DA staining-based flow cytometry; assay type: functional, cell-based
# HL-60 [8] = assay: Induction of ROS generation in human HL60 cells at 1.5 uM after 24 hrs in presence of antioxidant lipoic acid by DCFH-DA staining-based flow cytometry; assay type: functional, cell-based
# HL-60 [9] = assay: Induction of ROS generation in human HL60 cells at 1.5 uM after 24 hrs by DCFH-DA staining-based flow cytometry; assay type: functional, cell-based
# HL-60 [10] = assay: Induction of ROS generation in human HL60 cells at 1.5 uM after 24 hrs by DCFH-DA or DHE staining-based fluorescence microscopic analysis; assay type: functional, cell-based
# HL-60 [11] = assay: Induction of cell death in human HL60 cells assessed as decrease in total GSH levels after 24 hrs by MTT assay; assay type: functional, cell-based
# HL-60 [12] = assay: Induction of apoptosis in human HL60 cells assessed as apoptotic cells at 0.75 to 1.5 uM after 24 hrs by Annexin V-FITC/propidium iodide staining-based flow cytometry; assay type: functional
# HL-60 [13] = assay: Induction of apoptosis in human HL60 cells assessed as nuclear shrinkage at 0.75 to 1.5 uM after 24 hrs by Hoechst 33342 staining-based laser scanning confocal microscopic analysis; assay type: functional, cell-based
# HL-60 [14] = assay: Induction of apoptosis in human HL60 cells assessed as cell nuclear shrinkage at 0.75 to 1.5 uM after 24 hrs by Hoechst 33342 staining-based laser scanning confocal microscopic analysis; assay type: functional
# HL-60 [15] = assay: Induction of apoptosis in human HL60 cells assessed as abnormal cellular morphology at 0.75 to 1.5 uM after 24 hrs by Hoechst 33342 staining-based laser scanning confocal microscopic analysis; assay type: functional, cell-based
# HL-60 [16] = assay: Induction of apoptosis in human HL60 cells assessed as less cell quantity at 0.75 to 1.5 uM after 24 hrs by Hoechst 33342 staining-based laser scanning confocal microscopic analysis; assay type: functional
# HL-60 [17] = assay: Induction of mitochondrial membrane potential loss in human HL60 cells at 0.75 uM after 24 hrs by JC-1 staining-based flow cytometry (reference value: 28.6%); assay type: functional
# HL-60 [18] = assay: Induction of mitochondrial membrane potential loss in human HL60 cells at 1.5 uM after 24 hrs by JC-1 staining-based flow cytometry (reference value: 28.6%); assay type: functional
# HL-60 [19] = assay: Reduction of mitochondrial membrane potential in human HL60 cells assessed as decrease in ATP levels at 0.75 to 1.5 uM after 24 hrs; assay type: functional, cell-based
# Liver [20] = assay: Induction of mitochondrial dysfunction in Wistar rat liver assessed as swelling at 20 uM in presence of calcium related inhibitor ruthenium red; assay type: functional; conditions: mitochondria
# Liver [21] = assay: Induction of mitochondrial dysfunction in Wistar rat liver assessed as swelling at 20 uM in presence of calcium related inhibitor cyclosporine A; assay type: functional; conditions: mitochondria
# HL-60 [22] = assay: Induction of mitochondrial dysfunction in human HL60 cells assessed as increase in intracellular calcium level at 0.75 to 1.5 uM after 4 to 24 hrs by Fluo-3 AM dye-based flow cytometry; assay type: functional, cell-based
# HL-60 [23] = assay: Induction of mitochondrial dysfunction in human HL60 cells assessed as increase in cytochome c levels in cytosol at 1.5 uM after 24 hrs by ELISA relative to control; assay type: functional
# HL-60 [24] = assay: Induction of cell death in human HL60 cells at 1 to 1.5 uM after 24 hrs in presence of antioxidant NAC by trypan blue assay; assay type: functional, cell-based
# HL-60 [25] = assay: Induction of cell death in human HL60 cells at 1 to 1.5 uM after 24 hrs in presence of antioxidant vitamin E by trypan blue assay; assay type: functional, cell-based
# HL-60 [26] = assay: Induction of cell death in human HL60 cells at 0.4 uM after 24 hrs in presence of […] BSO by MTT assay; assay type: functional, cell-based
# HL-60 [27] = assay: Induction of cell death in human HL60 cells at 0.4 uM after 24 hrs in absence of BSO by MTT assay; assay type: functional, cell-based
# HL-60 [28] = assay: Induction of mitochondrial membrane potential loss in human HL60 cells at 0.75 uM after 24 hrs by JC-1 staining-based flow cytometry (reference value: 24.3%); assay type: functional
# HL-60 [29] = assay: Induction of mitochondrial membrane potential loss in human HL60 cells at 1.5 uM after 24 hrs by JC-1 staining-based flow cytometry (reference value: 24.3%); assay type: functional
SMILES,Activity (HL-60 [1]),IC50 (HL-60 [1]) [nM],Activity (HL-60 [2]),IC50 (HL-60 [2]) [nM],Activity (SGC-7901 [3]),IC50 (SGC-7901 [3]) [nM],Activity (SGC-7901 [4]),IC50 (SGC-7901 [4]) [nM],Activity (MCF7),Activity [5] [%],Activity (HL-60 [6]),Activity (HL-60 [7]),Activity (HL-60 [8]),Activity (HL-60 [9]),Activity (HL-60 [10]),Activity (HL-60 [11]),Activity (HL-60 [12]) [%],Activity (HL-60 [13]),Activity (HL-60 [14]),Activity (HL-60 [15]),other results
O=C(Nc1ccc([As]2SCCCS2)cc1)c1ccccc1O,Dose-dependent effect,840,Dose-dependent effect,690,Dose-dependent effect,14400,Dose-dependent effect,6750,Tde,20,inactive,inactive,inactive,Active,Active,Dose-dependent effect,40,Active,Active,Active,Activity (HL-60 [16]): Active; Activity (HL-60 [17]): 51.8%; Activity (HL-60 [18]): 71.8%; Activity (HL-60 [19]): Active; Activity (Liver [20]): inactive; Activity (Liver [21]): inactive; Activity (HL-60 [22]): Active; fold change (FC) (HL-60 [23]): 2; Activity (HL-60 [24]): inactive; Activity (HL-60 [25]): Active; Activity (HL-60 [26]): Active; Activity (HL-60 [27]): Active
Oc1ccccc1/C=N/c1ccc([As]2SCCCS2)cc1,Dose-dependent effect,940,Dose-dependent effect,710,Dose-dependent effect,7690,Dose-dependent effect,4050,Tde,20,inactive,inactive,inactive,Active,Active,Dose-dependent effect,40,Active,Active,Active,Activity (HL-60 [16]): Active; Activity (HL-60 [28]): 49.1%; Activity (HL-60 [29]): 71%; Activity (HL-60 [19]): Active; Activity (Liver [20]): inactive; Activity (Liver [21]): inactive; Activity (HL-60 [22]): Active; fold change (FC) (HL-60 [23]): 2; Activity (HL-60 [24]): inactive; Activity (HL-60 [25]): Active; Activity (HL-60 [26]): Active; Activity (HL-60 [27]): Active
